US20040224958A1, “Pyridopyrimidinone derivatives for treatment of neurodegenerative disease” (priority 2000, published 2004)
pIC50: −log10 of the molar value. Read-outs that look alike come from different tables or passages of the source.

Assays:
cdk4/D = cdk4/D (Homo sapiens, UniProt P11802); assay: Cyclin-Dependent Kinase 4 (cdk4) Assay; type: biochemical
cdk2/cyclinA = cdk2/cyclinA (Homo sapiens, UniProt P24941); assay: Cyclin-Dependent Kinase Assay cdk2/cyclinA
Cdk5/p25 = Cdk5/p25 (Homo sapiens, UniProt Q00535); assay: Cyclin-Dependent Kinase 5 (cdk5) Assay; type: biochemical
Protocol: Cyclin-Dependent Kinase 5 (cdk5) Assay
Enzyme assays for IC50 determinations and kinetic evaluation were performed in 96-well filter plates (Millipore MAPH NOB 10). […] All components except histone and ATP were added to wells, and the plate was placed on a shaker for 5 minutes. The reaction was started by adding histone and [^32P]ATP, and the plate was shaken at 30° C. for 45 minutes. The reaction was terminated by addition of 0.1 mL of 150 mM phosphoric acid. The plate was kept at 4° C. for 30 minutes to allow substrate to precipitate. The wells were then washed three times with 0.2 mL of 75 mM phosphoric acid and ^32P incorporation was determined with a beta plate counter (Wallac Inc, Gaithersburg, Md.).

cdc2/cyclinB = cdc2/cyclinB (Homo sapiens, UniProt P06493); assay: Cyclin-Dependent Kinase Assay cdc2/cyclinB
cdk2/cyclinE = cdk2/cyclinE (Homo sapiens, UniProt P24941); assay: Cyclin-Dependent Kinase Assay cdk2/cyclinE

Sequence of cdk4/D (P11802 whole entry): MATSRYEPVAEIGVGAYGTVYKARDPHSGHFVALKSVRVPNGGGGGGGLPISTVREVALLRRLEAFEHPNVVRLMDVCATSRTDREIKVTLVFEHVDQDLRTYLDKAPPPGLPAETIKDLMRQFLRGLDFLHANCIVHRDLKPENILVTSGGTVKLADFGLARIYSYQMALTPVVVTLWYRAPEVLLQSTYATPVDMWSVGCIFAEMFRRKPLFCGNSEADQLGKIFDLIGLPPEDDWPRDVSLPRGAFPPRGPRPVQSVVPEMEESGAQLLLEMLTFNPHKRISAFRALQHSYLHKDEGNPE
Sequence of cdk4/D (P24385 whole entry, further chain): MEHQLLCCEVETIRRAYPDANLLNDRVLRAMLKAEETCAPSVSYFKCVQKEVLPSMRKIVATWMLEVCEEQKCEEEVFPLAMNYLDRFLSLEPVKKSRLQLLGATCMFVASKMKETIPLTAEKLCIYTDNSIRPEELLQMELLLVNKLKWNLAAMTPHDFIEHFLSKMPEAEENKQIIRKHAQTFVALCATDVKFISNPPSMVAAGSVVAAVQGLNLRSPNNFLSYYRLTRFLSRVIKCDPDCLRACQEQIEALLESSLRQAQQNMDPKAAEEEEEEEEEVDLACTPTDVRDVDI
Sequence of cdc2/cyclinB (P06493 whole entry): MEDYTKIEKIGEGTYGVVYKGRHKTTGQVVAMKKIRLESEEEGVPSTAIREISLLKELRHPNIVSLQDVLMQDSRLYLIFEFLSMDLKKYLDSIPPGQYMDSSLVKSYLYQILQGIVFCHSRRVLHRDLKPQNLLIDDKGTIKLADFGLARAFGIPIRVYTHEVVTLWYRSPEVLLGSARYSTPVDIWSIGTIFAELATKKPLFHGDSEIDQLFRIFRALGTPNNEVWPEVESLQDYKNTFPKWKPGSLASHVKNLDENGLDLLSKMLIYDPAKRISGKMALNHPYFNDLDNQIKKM
Sequence of cdc2/cyclinB (P14635 whole entry, further chain): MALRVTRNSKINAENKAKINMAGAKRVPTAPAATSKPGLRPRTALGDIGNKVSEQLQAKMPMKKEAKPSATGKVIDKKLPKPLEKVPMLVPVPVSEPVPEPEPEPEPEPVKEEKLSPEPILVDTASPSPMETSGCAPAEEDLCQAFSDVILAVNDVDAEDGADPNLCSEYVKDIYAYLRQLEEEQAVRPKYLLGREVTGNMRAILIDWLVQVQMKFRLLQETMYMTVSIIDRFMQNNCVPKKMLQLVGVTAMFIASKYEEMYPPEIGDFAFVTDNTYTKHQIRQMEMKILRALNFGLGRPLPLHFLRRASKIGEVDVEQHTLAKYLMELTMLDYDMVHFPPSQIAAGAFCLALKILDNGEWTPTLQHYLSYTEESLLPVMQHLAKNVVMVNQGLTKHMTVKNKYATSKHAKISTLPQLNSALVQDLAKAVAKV

Row | Compound | pIC50 (cdk4/D; Table 1, read-out: cdk4/D IC50) | melting point [°C] | pIC50 (cdk2/cyclinA; cdk2/A IC50, Table 1) | pIC50 (Cdk5/p25; Table 1) | pIC50 (cdc2/cyclinB) | pIC50 (cdk4/D; Table 3, read-out: Cdk4 IC50) | pIC50 (cdk2/cyclinA; Cdk2/A IC50, Table 3) | pIC50 (Cdk5/p25; Table 3) | pIC50 (cdk2/cyclinE; Cdk2/E IC50, Table 3) | pIC50 (cdk2/cyclinE; cdk2/E IC50, Table 1)
1 | CC1CC(C)CN(c2ccc(Nc3ncc4ccc(=O)n(C5CCCCC5)c4n3)cc2)C1 (stereo not shown) [Example 167] | 6.37 | 238 to 240 | 6.57 | 5.57 | 5.05 | – | – | – | – | –
2 | CC(C)n1c(=O)ccc2cnc(Nc3ccc(O)cc3)nc21 [Example 624, 8-Isopropyl-2-(4-hydroxy-phenylamino)-8H-pyrido[2,3-]pyrimidin-7-one] | – | > 220 | – | – | – | 6.59 | 7.21 | 7.82 | 6.66 | –
3 | CC(C)n1c(=O)ccc2cnc(Nc3cccc([N+](=O)[O-])c3)nc21 [Example 623, 8-Isopropyl-2-(3-nitro-phenylamino)-8H-pyrido[2,3-d]pyrimidin-7-one] | – | 202 to 203 | – | – | – | 5.20 | 6.53 | 7.68 | 6.12 | –
4 | CN1CCN(c2ccc(Nc3ncc4ccc(=O)n(CCOCc5ccccc5)c4n3)cc2)CC1 [Example 140] | – | 183 to 191 | 4.87 | 5.29 | – | – | – | – | – | 4.63
5 | O=c1ccc2cnc(Nc3ccc(N4CCC(CCCN5CCOCC5)CC4)cc3)nc2n1C1CC2CCC1C2 (stereo not shown) [Example 235, 8-Bicyclo[2.2.1]hept-2-yl-2-{4-[4-(3-morpholin-4-yl-propyl)-piperidin-1-yl]-phenylamino}-8H-pyrido[2,3-d]pyrimidin-7-one] | 7.43 | 197 to 198 | 7.02 | 5.84 | 5.77 | – | – | – | – | –
6 | COc1ccc(Nc2ncc3ccc(=O)n(C(C)C)c3n2)cc1 [Example 111, 8-Isopropyl-2-(4-methoxy-phenylamino)-8H-pyrido[2,3-d]pyrimidin-7-one] | – | 153 to 155 | – | – | – | 6.21 | 6.92 | 8.01 | 6.24 | –
7 | O=c1ccc2cnc(Nc3ccc(-c4ccccc4)cc3)nc2n1C1CC2CCC1C2 (stereo not shown) [Example 223, 8-Bicyclo[2.2.1]hept-2-yl-2-(biphenyl-4-ylamino)-8H-pyrido[2,3-d]pyrimidin-7-one] | – | 255 to 257 | 4.74 | 6.23 | – | – | – | – | – | 5.71
8 | CCn1c(=O)ccc2cnc(Nc3cccc(F)c3OC)nc21 [Example 91, 8-Ethyl-2-(3-fluoro-2-methoxyphenylamino)-8H-pyrido[2,3-d]pyrimidin-7-one] | – | 92 to 93 | – | 5.35 | – | – | – | – | – | –
9 | CCn1c(=O)ccc2cnc(Nc3cccc(F)c3)nc21 [Example 89, 8-Ethyl-2-(3-fluorophenylamino)-8H-pyrido[2,3-d]pyrimidin-7-one] | – | 210 to 212 | – | 6.41 | – | – | – | – | – | –
10 | O=c1ccc2cnc(Nc3ccc(N4CCCCC4)cc3)nc2n1C1CCOCC1 [Example 211, 2-(4-Piperidin-1-yl-phenylamino)-8-(tetrahydro-pyran-4-yl)-8H-pyrido[2,3-d]pyrimidin-7-one] | 6.82 | 254 to 255 | 6.24 | 6.47 | – | – | – | – | – | 5.12
11 | CCN(CC)CCOc1ccc(Nc2ncc3ccc(=O)n(C4CC4)c3n2)cc1 [Example 134, 8-Cyclopropyl-2-[4-(2-diethylamino-ethoxy)-phenylamino]-8H-pyrido[2,3-d]pyrimidin-7-one] | 7.28 | 119 to 121 | – | 6.49 | – | – | – | – | – | –
12 | CCn1c(=O)ccc2cnc(Nc3ccccc3OC)nc21 [Example 92, 8-Ethyl-2-(2-methoxyphenylamino)-8H-pyrido[2,3-d]pyrimidin-7-one] | – | 126 to 128 | – | 5.77 | – | – | – | – | – | –
13 | O=c1ccc2cnc(Nc3ccc(N4CCC(CCCO)CC4)cc3)nc2n1C1CC2CCC1C2 (stereo not shown) [Example 214, 8-Bicyclo[2.2.1]hept-2-yl-2-{4-[4-(3-hydroxy-propyl)-piperidin-1-yl]-phenylamino}-8H-pyrido[2,3-d]pyrimidin-7-one] | 8.10 | 223 | 6.69 | 5.48 | – | – | – | – | – | 6.90
14 | CC1CCCN(c2ccc(Nc3ncc4ccc(=O)n(C5CCCCC5)c4n3)cc2)C1 (stereo not shown) [Example 175, 8-Cyclohexyl-2-[4-(3-methyl-piperidin-1-yl)-phenylamino]-8H-pyrido[2,3-d]pyrimidin-7-one] | 6.57 | 189 to 190 | 6.15 | 6.16 | – | – | – | – | – | 6.36
15 | Cn1c(=O)ccc2cnc(Nc3ccccc3)nc21 [Example 61, 8-Methyl-2-phenylamino-8H-pyrido[2,3-d]pyrimidin-7-one] | – | 244 to 247 | – | – | – | 5.26 | 5.94 | 7.05 | 5.77 | –
16 | O=c1ccc2cnc(Nc3ccccc3)nc2n1Cc1ccccc1 [Example 35, 8-Benzyl-2-phenylamino-8H-pyrido[2,3-d]pyrimidin-7-one] | 6.03 | 215 to 216 | – | 6.51 | – | – | – | – | – | 4.47

Results, then the molecule that gave them:

Row | pIC50 (cdk4/D; Table 1, read-out: cdk4/D IC50) | melting point [°C] | pIC50 (cdk2/cyclinA; cdk2/A IC50, Table 1) | pIC50 (Cdk5/p25; Table 1) | pIC50 (cdc2/cyclinB) | pIC50 (cdk4/D; Table 3, read-out: Cdk4 IC50) | pIC50 (cdk2/cyclinA; Cdk2/A IC50, Table 3) | pIC50 (Cdk5/p25; Table 3) | pIC50 (cdk2/cyclinE; Cdk2/E IC50, Table 3) | pIC50 (cdk2/cyclinE; cdk2/E IC50, Table 1) | Compound
17 | 6.76 | 199 to 200 | 7.21 | 6.95 | 6.60 | – | – | – | – | – | O=c1ccc2cnc(Nc3ccc(N4CCCC4)cc3)nc2n1C1CCCCC1 [Example 160, 8-Cyclohexyl-2-(4-pyrrolidin-1-yl-phenylamino)-8H1-pyrido[2,3-d]pyrimidin-7-one]
18 | 6.86 | 189 to 190 | – | 7.51 | – | – | – | – | – | 6.92 | O=c1ccc2cnc(Nc3ccc(-n4cccc4)cc3)nc2n1C1CCCC1 [Example 190, 8-Cyclopentyl-2-(4-pyrrol-1-yl-phenylamino)-8H-pyrido[2,3-d]pyrimidin-7-one]
19 | 6.18 | 90 to 91 | – | 7.11 | – | – | – | – | – | – | O=c1ccc2cnc(Nc3cccc(N4CCCCC4)c3)nc2n1C1CCCC1 [Example 202, 8-Cyclopentyl-2-(3-piperidin-1-yl-phenylamino)-8H-pyrido[2,3-d]pyrimidin-7-one]
20 | 6.30 | 164 to 165 | – | 7.08 | – | – | – | – | – | – | O=c1ccc2cnc(Nc3cccc(N4CCCCC4)c3)nc2n1C1CCCCC1 [Example 203, 8-Cyclohexyl-2-(3-piperidin-1-yl-phenylamino)-8H-pyrido[2,3-d]pyrimidin-7-one]
21 | – | 215 to 217 | – | 7.28 | – | 5.91 | 6.38 | 7.49 | 6.25 | – | CCn1c(=O)ccc2cnc(Nc3ccc(F)cc3)nc21 [Example 88, 8-Ethyl-2-(4-fluorophenylamino)-8H-pyrido[2,3-d]pyrimidin-7-one]
22 | 7.82 | 216 to 217 | – | 7.72 | 6.93 | – | – | – | – | 7.36 | O=c1ccc2cnc(Nc3ccc(N4CCC(O)CC4)cc3)nc2n1C1CCCC1 [Example 198, 8-Cyclopentyl-2-[4-(4-hydroxy-piperidin-1-yl)-phenylamino]-8H-pyrido[2,3-d]pyrimidin-7-one]
23 | 7.47 | 208 to 209 | – | 6.90 | 5.13 | – | – | – | – | 5.63 | O=c1ccc2cnc(Nc3ccc(N4CCC(CCCO)CC4)cc3)nc2n1C1CCCC1 [Example 197, 8-Cyclopentyl-2-{4-[4-(3-hydroxy-propyl)-piperidin-1-yl]-phenylamino]-8H-pyrido[2,3-d]pyrimidin-7-one]
24 | – | 189 to 191 | – | 7.19 | – | – | – | – | – | – | CCn1c(=O)ccc2cnc(Nc3ccc(N(C)C)cc3)nc21 [Example 93, 2-(4-Dimethylamino-phenylamino)-8-ethyl-8H-pyrido[2,3-d]pyrimidin-7-one]
25 | – | 210 to 211 | – | 6.62 | – | – | – | – | – | – | CN1CCN(c2ccc(Nc3ncc4ccc(=O)n(C5CC5)c4n3)cc2)CC1 [Example 136, 8-Cyclopropyl-2-[4-(4-methyl-piperazin-1-yl)-phenylamino]-81H-pyrido[2,3-d]pyrimidin-7-one]
26 | 8.18 | 105 to 107 | 7.37 | 7.72 | – | – | – | – | – | 6.96 | CCN(CC)CCOc1ccc(Nc2ncc3ccc(=O)n(C4CCCC4)c3n2)cc1 [Example 117, 8-Cyclopentyl-2-[4-(2-diethylamino-ethoxy)-phenylamino]-8H-pyrido[2,3-d]pyrimidin-7-one]
27 | 6.70 | 165 to 167 | 6.69 | 6.63 | – | – | – | – | – | 5.89 | CCN(CC)CCOc1ccc(Nc2ncc3ccc(=O)n(-c4ccccc4)c3n2)cc1 [Example 118, 2-[4-(2-Diethylamino-ethoxy)-phenylamino]-8-phenyl-8H-pyrido[2,3-d]pyrimidin-7-one]
28 | 7.77 | 199 to 200 | – | 6.91 | – | – | – | – | – | 7.33 | O=c1ccc2cnc(Nc3ccc(N4CCC(CCO)CC4)cc3)nc2n1C1CCCC1 [Example 196]
29 | 6.88 | 169 to 171 | – | 6.81 | – | – | – | – | – | – | Cc1cc(C)n(-c2ccc(Nc3ncc4ccc(=O)n(C5CCCC5)c4n3)cc2)n1 [Example 195, 8-Cyclopentyl-2-[4-(3,5-dimethyl-pyrazol-1-yl)-phenylamino]-8H-pyrido[2,3-d]pyrimidin-7-one]
